Assay results as given in ChEMBL document CHEMBL5370585, “Exploration and Biological Evaluation of 1,3-Diamino-7H-pyrrol[3,2-f]quinazoline Derivatives as Dihydrofolate Reductase Inhibitors” (J Med Chem, 2023).
In brackets after ≈: the same amount, converted by molar mass.

Experiments:
[1] = test system: HCT-116; assay: Cytotoxicity against human HCT-116 cells measured after 72 hrs by MTT assay; format: functional, cell-based; conditions: HCT-116, 72 h
[2] = test system: Staphylococcus aureus; assay: Antibacterial activity against Staphylococcus aureus ATCC 29213 incubated for 16 to 18 hrs by CLSI based broth dilution method; format: functional; conditions: time 16-18 hrs
[3] = test system: Staphylococcus epidermidis; assay: Antibacterial activity against Staphylococcus epidermidis ATCC 12228 incubated for 16 to 18 hrs by CLSI based broth dilution method; format: functional; conditions: time 16-18 hrs
[4] = test system: MCF7; assay: Cytotoxicity against human MCF7 cells measured after 72 hrs by MTT assay; format: functional, cell-based; conditions: MCF7, 72 h
[5] = test system: Staphylococcus aureus; assay: Antibacterial activity against methicillin-resistant Staphylococcus aureus ATCC 43300 incubated for 16 to 18 hrs by CLSI based broth dilution method; format: functional; conditions: time 16-18 hrs
[6] = test system: Enterococcus faecalis; assay: Antibacterial activity against Enterococcus faecalis ATCC 29212 incubated for 16 to 18 hrs by CLSI based broth dilution method; format: functional; conditions: time 16-18 hrs
[7] = test system: HGC-27; assay: Cytotoxicity against human HGC-27 cells measured after 72 hrs by MTT assay; format: functional, cell-based; conditions: HGC-27, 72 h
[8] = target: T1, Dihydrofolate reductase (Homo sapiens) (UniProt P00374); assay: Inhibition of human DHFR at 1 uM incubated for 10 mins in presence of NADPH by colorimetry based analysis relative to control
T1 sequence (whole entry): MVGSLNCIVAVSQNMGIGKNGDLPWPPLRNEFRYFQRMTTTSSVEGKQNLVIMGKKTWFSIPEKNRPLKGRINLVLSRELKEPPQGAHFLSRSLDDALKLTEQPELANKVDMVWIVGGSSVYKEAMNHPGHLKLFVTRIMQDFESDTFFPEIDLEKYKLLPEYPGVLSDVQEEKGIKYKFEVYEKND

[9] = test system: Escherichia coli; assay: Antibacterial activity against Escherichia coli ATCC 25922 incubated for 16 to 18 hrs by CLSI based broth dilution method; format: functional; conditions: time 16-18 hrs
[10] = test system: HepG2; assay: Cytotoxicity against human HepG2 cells measured after 72 hrs by MTT assay; format: functional, cell-based; conditions: HepG2, 72 h
[11] = test system: Acinetobacter baumannii; assay: Antibacterial activity against Acinetobacter baumannii ATCC 19606 incubated for 16 to 18 hrs by CLSI based broth dilution method; format: functional; conditions: time 16-18 hrs

Row | Compound | IC50 [1] [nM] | MIC [2] [µg/mL] | MIC [3] [µg/mL] | IC50 [4] [nM] | MIC [5] [µg/mL] | MIC [6] [µg/mL] | IC50 [7] [nM] | inhibition [8] [%] | MIC [9] [µg/mL] | IC50 [10] [nM] | MIC [11] [µg/mL]
1 | Nc1nc(N)c2c(ccc3c2ccn3Cc2ccc(B(O)O)c3ccccc23)n1 | < 100 | 0.25 (≈ 0.652 µM) | ≤ 0.004 | 110 | 0.125 (≈ 0.326 µM) | 0.125 (≈ 0.326 µM) | < 100 | 77.4 | 1 (≈ 2.61 µM) | < 100 | 
2 | COC(=O)c1ccc2nc(Cn3ccc4c5c(N)nc(N)nc5ccc43)sc2c1 | 720 | 4 (≈ 9.89 µM) | 0.008 (≈ 0.0198 µM) | > 10000 | 2 (≈ 4.94 µM) | 2 (≈ 4.94 µM) | 240 |  | > 8 | 490 | > 32
3 | CCOC(=O)c1ccc(Cn2ccc3c4c(N)nc(N)nc4ccc32)c2ccccc12 | 870 | 0.5 (≈ 1.22 µM) | ≤ 0.06 | 8250 | 0.25 (≈ 0.608 µM) | 0.5 (≈ 1.22 µM) | < 100 | 70.9 | 64 (≈ 156 µM) | 530 | 
4 | Nc1nc(N)c2c(ccc3c2ccn3Cc2cc3ccccc3s2)n1 | 1940 | 0.125 (≈ 0.362 µM) | ≤ 0.004 | 910 | 0.125 (≈ 0.362 µM) | 0.125 (≈ 0.362 µM) | 510 | 70.9 | 0.25 (≈ 0.724 µM) | 270 | 32 (≈ 92.6 µM)
5 | Nc1nc(N)c2c(ccc3c2ccn3Cc2ccc3cc(C(=O)O)ccc3c2)n1 | 100 | 0.004 (≈ 0.0104 µM) | ≤ 0.004 | 550 | 0.004 (≈ 0.0104 µM) | 50 (≈ 130 µM) | 95 | 98.8 | > 128 | 140 | 
6 | Nc1nc(N)c2c(ccc3c2ccn3Cc2ccc3occc3c2)n1 | 2460 | 0.06 (≈ 0.182 µM) | ≤ 0.004 | 1000 | 0.004 (≈ 0.0121 µM) | 0.03 (≈ 0.0911 µM) | 410 | 64.5 | 0.125 (≈ 0.38 µM) | 1250 | 1 (≈ 3.04 µM)
7 | Nc1nc(N)c2c(ccc3c2ccn3Cc2ccc3ncsc3c2)n1 | > 10000 | 0.25 (≈ 0.722 µM) | ≤ 0.004 | 3870 | 0.125 (≈ 0.361 µM) | 0.25 (≈ 0.722 µM) | 310 | 80.6 | 0.25 (≈ 0.722 µM) | 1170 | 16 (≈ 46.2 µM)
8 | Nc1nc(N)c2c(ccc3c2ccn3Cc2ccc3nc(N)sc3c2)n1 | 4 | 2 (≈ 5.53 µM) | ≤ 0.004 | 250 | 2 (≈ 5.53 µM) | 2 (≈ 5.53 µM) | 6 | 90.2 | 4 (≈ 11.1 µM) | 61 | > 32
9 | Nc1nc(N)c2c(ccc3c2ccn3Cc2nc3ccc(C(=O)O)cc3s2)n1 | 1600 | 8 (≈ 20.5 µM) | 0.5 (≈ 1.28 µM) | 8120 | > 8 | > 8 | 890 | 80.6 | > 8 | 2190 | > 32
10 | COc1cc(Cc2cnc(N)nc2N)c2c(c1OC)OC(C1CC1)C=C2 (configuration not stated) |  | 0.06 (≈ 0.169 µM) | ≤ 0.004 |  | 0.06 (≈ 0.169 µM) | 0.06 (≈ 0.169 µM) |  |  | 1 (≈ 2.82 µM) |  | 
11 | Nc1nc(N)c2c(ccc3c2ccn3Cc2nc3ccccc3o2)n1 | 40 | 0.5 (≈ 1.51 µM) | 0.008 (≈ 0.0242 µM) | 970 | 0.25 (≈ 0.757 µM) | 0.25 (≈ 0.757 µM) | 69 | 16.1 | 0.25 (≈ 0.757 µM) | 660 | 16 (≈ 48.4 µM)
12 | Nc1nc(N)c2c(ccc3c2ccn3Cc2ccc3ocnc3c2)n1 | > 10000 | 8 (≈ 24.2 µM) | ≤ 0.004 | 5870 | 2 (≈ 6.05 µM) | 4 (≈ 12.1 µM) | 3540 | 29.1 | 2 (≈ 6.05 µM) | 3650 | > 32
13 | Nc1nc(N)c2c(ccc3c2ccn3Cc2ccc3sc(N)nc3c2)n1 | > 10000 | > 8 | 2 (≈ 5.53 µM) | > 10000 | 8 (≈ 22.1 µM) | > 8 | > 10000 |  | > 8 | > 10000 | > 32
